Data: the supplement of paper PMC10331698
± gives the standard deviation of the averaged measurements.

Columns and labels:
Assay in all cases: level (log10 ratio to DMSO vehicle control); higher = higher biomarker level / cell amount than vehicle control
Conditions in all cases: in DMSO
[1] = compound: OCC(F)(F)C(F)(F)C(F)(F)C(F)(F)C(F)(F)C(F)(F)C(F)(F)C(F)(F)CO [1H,1H,10H,10H-Perfluorodecane-1,10-diol]
Method: (§1)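 BioMAP Diversity Plus panel of 12 human primary cell co-culture systems (3C, 4H, LPS, SAg, BT, BF4T, BE3C, CASM3C, HDF3CGF, KF3CT, MyoF, Mphg). Compounds were added 1 h before stimulation and left for 24 h (MyoF 48 h; BT 72 h for soluble read-outs or 6 d for IgG). Biomarkers were read by ELISA, cytotoxicity by SRB, PBMC viability and proliferation by Alamar Blue. Each well value was divided by the mean of 8 DMSO control wells on the same plate and log10 transformed; duplicate blinded samples were tested at 4 concentrations.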

[2] = compound: O=C(Cl)C(F)(F)C(F)(F)C(F)(F)C(=O)Cl [Hexafluoroglutaryl chloride]
Method: as §1

Perfluorooctanoic acid = compound: O=C(O)C(F)(F)C(F)(F)C(F)(F)C(F)(F)C(F)(F)C(F)(F)C(F)(F)F [Perfluorooctanoic acid]
Method: as §1

[3] = compound: FC(F)(F)C(F)(F)C(F)(F)C(F)(F)CCI [1H,1H,2H,2H-Perfluorohexyl iodide]
Method: as §1

Perfluoropinacol = compound: OC(C(F)(F)F)(C(F)(F)F)C(O)(C(F)(F)F)C(F)(F)F [Perfluoropinacol]
Method: as §1

Methotrexate = compound: CN(Cc1cnc2nc(N)nc(N)c2n1)c1ccc(C(=O)N[C@@H](CCC(=O)O)C(=O)O)cc1 [Methotrexate]
Method: as §1

[4] = compound: O=C(CC(=O)C(F)(F)C(F)(F)C(F)(F)F)c1cccs1 [(Perfluorobutyryl)-2-thenoylmethane]
Method: as §1

3C:CCL2/MCP-1
level (log10) ([1]; 6700 nM): -0.0015 ± 0.005
level (log10) ([1]; 20000 nM): 0.0055 ± 0.00071
level (log10) ([1]; 60000 nM): 0.018
level (log10) ([2]; 6700 nM): 0.009 ± 0.0028
level (log10) ([2]; 20000 nM): -0.0105 ± 0.035
level (log10) ([2]; 60000 nM): 0.009 ± 0.065
level (log10) (Perfluorooctanoic acid; 6700 nM): 0.0055 ± 0.016
level (log10) (Perfluorooctanoic acid; 20000 nM): 0.008 ± 0.0071
level (log10) (Perfluorooctanoic acid; 60000 nM): 0.04 ± 0.034
level (log10) ([3]; 6700 nM): 0.015 ± 0.0014
level (log10) ([3]; 20000 nM): -0.0195 ± 0.0092
level (log10) ([3]; 60000 nM): 0.0055 ± 0.026
level (log10) (Perfluoropinacol; 6700 nM): 0.092 ± 0.013
level (log10) (Perfluoropinacol; 20000 nM): 0.0445 ± 0.012
level (log10) (Methotrexate; 1500 nM): 0.0505 ± 0.0064
level (log10) (Methotrexate; 4400 nM): -0.013 ± 0.027
level (log10) (Methotrexate; 13000 nM): 0.0065 ± 0.0078
level (log10) (Methotrexate; 40000 nM): 0.028 ± 0.028
level (log10) ([4]; 6700 nM): -0.0145 ± 0.013
level (log10) ([4]; 20000 nM): -0.166 ± 0.0085

3C:CD54/ICAM-1
level (log10) ([1]; 6700 nM): -0.01 ± 0.0014
level (log10) ([1]; 20000 nM): -0.0035 ± 0.005
level (log10) ([1]; 60000 nM): -0.006
level (log10) ([2]; 6700 nM): 0.002 ± 0.0014
level (log10) ([2]; 20000 nM): -0.006 ± 0.013
level (log10) ([2]; 60000 nM): 0.0025 ± 0.035
level (log10) (Perfluorooctanoic acid; 6700 nM): -0.0145 ± 0.0035
level (log10) (Perfluorooctanoic acid; 20000 nM): -0.007 ± 0.0042
level (log10) (Perfluorooctanoic acid; 60000 nM): 0.0185 ± 0.0078
level (log10) ([3]; 6700 nM): -0.01 ± 0.041
level (log10) ([3]; 20000 nM): -0.027 ± 0.025
level (log10) ([3]; 60000 nM): -0.009 ± 0.054
level (log10) (Perfluoropinacol; 6700 nM): 0.0055 ± 0.0021
level (log10) (Perfluoropinacol; 20000 nM): -0.0005 ± 0.021
level (log10) (Methotrexate; 1500 nM): 0.0065 ± 0.0064
level (log10) (Methotrexate; 4400 nM): -0.0085 ± 0.005
level (log10) (Methotrexate; 13000 nM): 0.0045 ± 0.013
level (log10) (Methotrexate; 40000 nM): -0.002 ± 0.0085
level (log10) ([4]; 6700 nM): -0.027 ± 0.021
level (log10) ([4]; 20000 nM): -0.0365 ± 0.00071

3C:CD62E/E-Selectin
level (log10) ([1]; 6700 nM): -0.0065 ± 0.005
level (log10) ([1]; 20000 nM): -0.0275 ± 0.0092
level (log10) ([1]; 60000 nM): -0.082
level (log10) ([2]; 6700 nM): -0.0315 ± 0.049
level (log10) ([2]; 20000 nM): -0.02 ± 0.038
level (log10) ([2]; 60000 nM): -0.0025 ± 0.012
level (log10) (Perfluorooctanoic acid; 6700 nM): 0.001 ± 0.0042
level (log10) (Perfluorooctanoic acid; 20000 nM): 0.0195 ± 0.0035
level (log10) (Perfluorooctanoic acid; 60000 nM): 0.0725 ± 0.0078
level (log10) ([3]; 6700 nM): -0.003 ± 0.0042
level (log10) ([3]; 20000 nM): -0.0225 ± 0.018
level (log10) ([3]; 60000 nM): 0.005 ± 0.014
level (log10) (Perfluoropinacol; 6700 nM): -0.007 ± 0.013
level (log10) (Perfluoropinacol; 20000 nM): -0.0605 ± 0.03
level (log10) (Methotrexate; 1500 nM): 0.007 ± 0.0057
level (log10) (Methotrexate; 4400 nM): -0.0145 ± 0.0035
level (log10) (Methotrexate; 13000 nM): -0.004 ± 0.02
level (log10) (Methotrexate; 40000 nM): 0.01 ± 0.011
level (log10) ([4]; 6700 nM): -0.0365 ± 0.036
level (log10) ([4]; 20000 nM): -0.019 ± 0.0014

3C:CD106/VCAM-1
level (log10) ([1]; 6700 nM): -0.023 ± 0.0071
level (log10) ([1]; 20000 nM): -0.0225 ± 0.0021
level (log10) ([1]; 60000 nM): -0.052
level (log10) ([2]; 6700 nM): -0.03 ± 0.021
level (log10) ([2]; 20000 nM): -0.028 ± 0.035
level (log10) ([2]; 60000 nM): -0.018 ± 0.02
level (log10) (Perfluorooctanoic acid; 6700 nM): -0.0435 ± 0.053
level (log10) (Perfluorooctanoic acid; 20000 nM): -0.0325 ± 0.05
level (log10) (Perfluorooctanoic acid; 60000 nM): -0.013 ± 0.067
level (log10) ([3]; 6700 nM): 0.0045 ± 0.026
level (log10) ([3]; 20000 nM): -0.015 ± 0.0014
level (log10) ([3]; 60000 nM): -0.0145 ± 0.021
level (log10) (Perfluoropinacol; 6700 nM): -0.006 ± 0.02
level (log10) (Perfluoropinacol; 20000 nM): -0.0385 ± 0.018
level (log10) (Methotrexate; 1500 nM): -0.0115 ± 0.044
level (log10) (Methotrexate; 4400 nM): -0.005 ± 0.021
level (log10) (Methotrexate; 13000 nM): 0.0055 ± 0.035
level (log10) (Methotrexate; 40000 nM): -0.0135 ± 0.026
level (log10) ([4]; 6700 nM): -0.027 ± 0.0071
level (log10) ([4]; 20000 nM): -0.089 ± 0.0099

3C:CD141/Thrombomodulin
level (log10) ([1]; 6700 nM): -0.027 ± 0.037
level (log10) ([1]; 20000 nM): -0.016 ± 0.0014
level (log10) ([1]; 60000 nM): 0.055
level (log10) ([2]; 6700 nM): -0.0455 ± 0.013
level (log10) ([2]; 20000 nM): -0.0275 ± 0.0078
level (log10) ([2]; 60000 nM): -0.056 ± 0.057
level (log10) (Perfluorooctanoic acid; 6700 nM): 0.023 ± 0.065
level (log10) (Perfluorooctanoic acid; 20000 nM): -0.011 ± 0.081
level (log10) (Perfluorooctanoic acid; 60000 nM): -0.0115 ± 0.039
level (log10) ([3]; 6700 nM): -0.041 ± 0.051
level (log10) ([3]; 20000 nM): -0.0175 ± 0.052
level (log10) ([3]; 60000 nM): 0.0165 ± 0.059
level (log10) (Perfluoropinacol; 6700 nM): -0.0165 ± 0.0021
level (log10) (Perfluoropinacol; 20000 nM): -0.033 ± 0.034
level (log10) (Methotrexate; 1500 nM): -0.024 ± 0.0085
level (log10) (Methotrexate; 4400 nM): -0.016 ± 0.0057
level (log10) (Methotrexate; 13000 nM): -0.0235 ± 0.067
level (log10) (Methotrexate; 40000 nM): -0.0265 ± 0.019
level (log10) ([4]; 6700 nM): -0.113 ± 0.081
level (log10) ([4]; 20000 nM): -0.071 ± 0.05

3C:CD142/Tissue Factor
level (log10) ([1]; 6700 nM): -0.0585 ± 0.028
level (log10) ([1]; 20000 nM): -0.0685 ± 0.032
level (log10) ([1]; 60000 nM): -0.107
level (log10) ([2]; 6700 nM): -0.04 ± 0.042
level (log10) ([2]; 20000 nM): -0.0435 ± 0.0092
level (log10) ([2]; 60000 nM): -0.07 ± 0.092
level (log10) (Perfluorooctanoic acid; 6700 nM): 0.0395 ± 0.057
level (log10) (Perfluorooctanoic acid; 20000 nM): 0.0135 ± 0.071
level (log10) (Perfluorooctanoic acid; 60000 nM): 0.049 ± 0.011
level (log10) ([3]; 6700 nM): -0.0125 ± 0.028
level (log10) ([3]; 20000 nM): 0.0155 ± 0.047
level (log10) ([3]; 60000 nM): 0.0725 ± 0.037
level (log10) (Perfluoropinacol; 6700 nM): -0.0805 ± 0.026
level (log10) (Perfluoropinacol; 20000 nM): -0.158 ± 0.0035
level (log10) (Methotrexate; 1500 nM): -0.0325 ± 0.042
level (log10) (Methotrexate; 4400 nM): -0.0135 ± 0.033
level (log10) (Methotrexate; 13000 nM): -0.0175 ± 0.081
level (log10) (Methotrexate; 40000 nM): -0.005 ± 0.061
level (log10) ([4]; 6700 nM): -0.0775 ± 0.022
level (log10) ([4]; 20000 nM): -0.356 ± 0.057

BE3C:Keratin 8/18
level (log10) ([1]; 6700 nM): -0.034 ± 0.0085
level (log10) ([1]; 20000 nM): -0.027 ± 0.0085
level (log10) ([1]; 60000 nM): -0.016
level (log10) ([2]; 6700 nM): 0.0005 ± 0.005
level (log10) ([2]; 20000 nM): -0.0195 ± 0.0078
level (log10) ([2]; 60000 nM): -0.0135 ± 0.022
level (log10) (Perfluorooctanoic acid; 6700 nM): -0.0145 ± 0.0064
level (log10) (Perfluorooctanoic acid; 20000 nM): -0.01 ± 0.0014
level (log10) (Perfluorooctanoic acid; 60000 nM): 0.0065 ± 0.028
level (log10) ([3]; 6700 nM): 0 ± 0.0099
level (log10) ([3]; 20000 nM): -0.0095 ± 0.013
level (log10) ([3]; 60000 nM): -0.006 ± 0.0014
level (log10) (Perfluoropinacol; 6700 nM): -0.0145 ± 0.00071
level (log10) (Perfluoropinacol; 20000 nM): -0.019 ± 0.0028
level (log10) (Methotrexate; 1500 nM): -0.0105 ± 0.047
level (log10) (Methotrexate; 4400 nM): -0.035 ± 0.042
level (log10) (Methotrexate; 13000 nM): -0.022 ± 0.057
level (log10) (Methotrexate; 40000 nM): -0.024 ± 0.025
level (log10) ([4]; 6700 nM): -0.0535 ± 0.025
level (log10) ([4]; 20000 nM): -0.145 ± 0.005
